Measured values from patent publication US6541619B1 (Daewoong Pharmaceutical Co., Ltd., priority 1997, dated 2003).

Experiments:
CHO-K1 cells = test: Cytotoxicity to CHO-K1 cells that do not express hEGF receptors (MTT); format: cell-based; conditions: CHO-K1, serum-free media, 2 days
Description: Cells were cultured on 96 well plates at 1×10^4 cells/ml for 1 day, and received serum-free media containing control and samples, and incubated for additional 2 days. Survival rate of the cells was measured with MTT, in an analogous manner as in Example 15(see: Table 4).

A431 tumor = test: Anticancer effect in vivo, A431 tumor transplanted in nude mouse
Description: To evaluate anticancer activity of the fusion protein in vivo, A431 cultured cells were transferred subcutaneously to the abdominal region of an immunodeficient nude mouse(20-25 g body weight) at 2×10^7 in 0.2 ml. When the proper size of tumor was formed, tumor was removed from the mouse under sterilization condition and cut into pieces of 2-3 mm to be transferred subcutaneously with a troca. When the size of the transplanted tumor of the nude mouse reached […], mice were divided into 5 groups(6 mice in one group) for i.v. injection. 100 μg/kg body weight of the fusion protein and angiogenin were administered by i.v. injection every 3 day for 4 weeks. After final administration, the area of the tumor-surface was measured by vernier calipers.
The tumor cells were excised after 4 weeks and measured for the weight(see: Table 5).

yeast t-RNA = test: RNase activity on yeast t-RNA (OD 260 nm); format: biochemical; conditions: relative to angiogenin; 37° C., 2 hours
Description: 50 μl of sample containing a fusion protein was mixed with 50 μl of yeast t-RNA mixture containing reaction buffer composed of 120 mM HEPES, 120 mM NaCl, 0.004% BSA and incubated at 37° C. for 2 hours. Reaction was interrupted by an equal volume of 6% perchloric acid. Subsequently, the reaction mixture was centrifuged for 10 minutes and used to measure optical density at 260 nm from which the standard curve was made to measure RNase activity. Activities of the samples were compared with that of angiogenin(see: Table 2).

MCF-7 = test: Cytotoxicity to breast cancer cells in vitro (MTT); format: cell-based, human; conditions: MCF-7, serum-free media, 2 days
Description: In order to evaluate activity of the fusion protein in vitro, breast cancer cell line, MCF-7(ATCC-HTB22), was cultured in DMEM supplemented with 10% FBS. Cells were plated on 96-well plates at 1×10^4 cells/ml and cultured for 1 day. Medium was replaced with serum free-media containing control, sample, and 5-fluorouracil(for comparison) and cultured for 2 days, survival rate was measured with MTT(3-([…]-2-yl)-2,5-diphenyltetrazolium bromide), and IC50 was calculated(see: Table 3).

| Molecule | IC50 (CHO-K1 cells; Cricetulus griseus, 48 h) [nM] | IC50 (CHO-K1 cells) [nM] | Mean tumor-surface B (after 4 weeks) (A431 tumor; 100 μg/kg i.v. every 3 day for 4 weeks, after 4 weeks) [mm^2] | Mean tumor-surface A (on the day of administration) (A431 tumor; 100 μg/kg i.v. every 3 day for 4 weeks, day of administration) [mm^2] | Mean tumor-surface B/A (A431 tumor; ratio of surface after 4 weeks to day of administration) | Mean tumor weight (A431 tumor; tumor excised after 4 weeks, 100 μg/kg i.v. every 3 day) [g] | RNase Activity(%) (yeast t-RNA) | IC50 (MCF-7) [nM] |
| --- | --- | --- | --- | --- | --- | --- | --- | --- |
| O=c1[nH]cc(F)c(=O)[nH]1 [5-fluorouracil, reference compound] | 49.5 | – | – | – | – | – | – | – |
| Angiogenin: human angiogenin, 14.4 kD protein consisting of 123 amino acids, ribonuclease superfamily, SEQ ID No:2 | – | > 100 | 477.2 ± 6.7 | 79.3 ± 2.1 | 6.0 | 5.0 ± 0.7 | 100% | > 100 |
| hEGF-angiogenin: fusion protein of EGF-angiogenin expressed from pTE4083, SEQ ID No:19 | – | – | – | – | – | – | 65-90% | – |
